# Test results from the NIST ThermoML archive (doi:10.1016/j.jct.2013.09.024).
# Numbers after ± are expanded uncertainties.
# Tests used:
# [1] = Liquid, Vibrating tube method
# [2] = xn = mol fraction of the nth substance listed; settings: Liquid, Vibrating tube method, x2 = 0
smiles,measurement,setting,value
CC1(C)C(=O)[C@]2(C)CC[C@H]1C2 [(-)-fenchone],mass density,"[1]; 283.15 K, 101 kPa",953.27 ± 0.12 kg/m3
same,mass density,"[1]; 283.15 K, 20000 kPa",965.6 ± 1 kg/m3
same,mass density,"[1]; 283.15 K, 25000 kPa",968.5 ± 1 kg/m3
same,mass density,"[1]; 283.15 K, 30000 kPa",971.3 ± 1 kg/m3
same,mass density,"[1]; 283.15 K, 35000 kPa",974 ± 1 kg/m3
same,mass density,"[1]; 283.15 K, 40000 kPa",976.6 ± 1 kg/m3
same,mass density,"[1]; 298.15 K, 101 kPa",940.67 ± 0.12 kg/m3
same,mass density,"[1]; 298.15 K, 20000 kPa",954 ± 1 kg/m3
same,mass density,"[1]; 298.15 K, 25000 kPa",957.1 ± 1 kg/m3
same,mass density,"[1]; 298.15 K, 30000 kPa",960 ± 1 kg/m3
same,mass density,"[1]; 298.15 K, 35000 kPa",962.9 ± 1 kg/m3
same,mass density,"[1]; 298.15 K, 40000 kPa",965.7 ± 1 kg/m3
same,mass density,"[1]; 313.15 K, 101 kPa",928.04 ± 0.12 kg/m3
same,mass density,"[1]; 313.15 K, 20000 kPa",942.3 ± 1 kg/m3
same,mass density,"[1]; 313.15 K, 25000 kPa",945.6 ± 1 kg/m3
same,mass density,"[1]; 313.15 K, 30000 kPa",948.7 ± 1 kg/m3
same,mass density,"[1]; 313.15 K, 35000 kPa",951.8 ± 1 kg/m3
same,mass density,"[1]; 313.15 K, 40000 kPa",954.7 ± 1 kg/m3
same,mass density,"[1]; 328.15 K, 101 kPa",915.39 ± 0.13 kg/m3
same,mass density,"[1]; 328.15 K, 20000 kPa",930.8 ± 1 kg/m3
same,mass density,"[1]; 328.15 K, 25000 kPa",934.2 ± 1 kg/m3
same,mass density,"[1]; 328.15 K, 30000 kPa",937.6 ± 1 kg/m3
same,mass density,"[1]; 328.15 K, 35000 kPa",940.9 ± 1 kg/m3
same,mass density,"[1]; 328.15 K, 40000 kPa",944 ± 1 kg/m3
CCO [ethanol],mass density,"[1]; 283.15 K, 101 kPa",797.99 ± 0.13 kg/m3
same,mass density,"[1]; 283.15 K, 20000 kPa",813.3 ± 1 kg/m3
same,mass density,"[1]; 283.15 K, 25000 kPa",816.8 ± 1 kg/m3
same,mass density,"[1]; 283.15 K, 30000 kPa",820.2 ± 1 kg/m3
same,mass density,"[1]; 283.15 K, 35000 kPa",823.4 ± 1.1 kg/m3
same,mass density,"[1]; 283.15 K, 40000 kPa",826.6 ± 1.1 kg/m3
same,mass density,"[1]; 298.15 K, 101 kPa",785.2 ± 0.13 kg/m3
same,mass density,"[1]; 298.15 K, 20000 kPa",801.7 ± 1 kg/m3
same,mass density,"[1]; 298.15 K, 25000 kPa",805.4 ± 1 kg/m3
same,mass density,"[1]; 298.15 K, 30000 kPa",809 ± 1.1 kg/m3
same,mass density,"[1]; 298.15 K, 35000 kPa",812.5 ± 1.1 kg/m3
same,mass density,"[1]; 298.15 K, 40000 kPa",815.8 ± 1.1 kg/m3
same,mass density,"[1]; 313.15 K, 101 kPa",772.15 ± 0.14 kg/m3
same,mass density,"[1]; 313.15 K, 20000 kPa",790.1 ± 1 kg/m3
same,mass density,"[1]; 313.15 K, 25000 kPa",794.1 ± 1 kg/m3
same,mass density,"[1]; 313.15 K, 30000 kPa",797.8 ± 1.1 kg/m3
same,mass density,"[1]; 313.15 K, 35000 kPa",801.5 ± 1.1 kg/m3
same,mass density,"[1]; 313.15 K, 40000 kPa",805 ± 1.1 kg/m3
same,mass density,"[1]; 328.15 K, 101 kPa",758.71 ± 0.14 kg/m3
same,mass density,"[1]; 328.15 K, 20000 kPa",778.1 ± 1 kg/m3
same,mass density,"[1]; 328.15 K, 25000 kPa",782.4 ± 1.1 kg/m3
same,mass density,"[1]; 328.15 K, 30000 kPa",786.4 ± 1.1 kg/m3
same,mass density,"[1]; 328.15 K, 35000 kPa",790.3 ± 1.1 kg/m3
same,mass density,"[1]; 328.15 K, 40000 kPa",794.1 ± 1.1 kg/m3
CCO [ethanol] + CC1(C)C(=O)[C@]2(C)CC[C@H]1C2,mass density,"[2]; 283.15 K, 101 kPa",797.99 ± 0.13 kg/m3
same,mass density,"[2]; 283.15 K, 20000 kPa",813.3 ± 1 kg/m3
same,mass density,"[2]; 283.15 K, 25000 kPa",816.8 ± 1 kg/m3
same,mass density,"[2]; 283.15 K, 30000 kPa",820.2 ± 1 kg/m3
same,mass density,"[2]; 283.15 K, 35000 kPa",823.4 ± 1.1 kg/m3
same,mass density,"[2]; 283.15 K, 40000 kPa",826.6 ± 1.1 kg/m3
same,mass density,"[2]; 298.15 K, 101 kPa",785.2 ± 0.13 kg/m3
same,mass density,"[2]; 298.15 K, 20000 kPa",801.7 ± 1 kg/m3
same,mass density,"[2]; 298.15 K, 25000 kPa",805.4 ± 1 kg/m3
same,mass density,"[2]; 298.15 K, 30000 kPa",809 ± 1.1 kg/m3
same,mass density,"[2]; 298.15 K, 35000 kPa",812.5 ± 1.1 kg/m3
same,mass density,"[2]; 298.15 K, 40000 kPa",815.8 ± 1.1 kg/m3
same,mass density,"[2]; 313.15 K, 101 kPa",772.15 ± 0.14 kg/m3
same,mass density,"[2]; 313.15 K, 20000 kPa",790.1 ± 1 kg/m3
same,mass density,"[2]; 313.15 K, 25000 kPa",794.1 ± 1 kg/m3
same,mass density,"[2]; 313.15 K, 30000 kPa",797.8 ± 1.1 kg/m3
same,mass density,"[2]; 313.15 K, 35000 kPa",801.5 ± 1.1 kg/m3
same,mass density,"[2]; 313.15 K, 40000 kPa",805 ± 1.1 kg/m3
same,mass density,"[2]; 328.15 K, 101 kPa",758.71 ± 0.14 kg/m3
same,mass density,"[2]; 328.15 K, 20000 kPa",778.1 ± 1 kg/m3
same,mass density,"[2]; 328.15 K, 25000 kPa",782.4 ± 1.1 kg/m3
same,mass density,"[2]; 328.15 K, 30000 kPa",786.4 ± 1.1 kg/m3
same,mass density,"[2]; 328.15 K, 35000 kPa",790.3 ± 1.1 kg/m3
same,mass density,"[2]; 328.15 K, 40000 kPa",794.1 ± 1.1 kg/m3
